The results in this text go back to ChEMBL document CHEMBL4627399, “Synthesis and Structure-Activity Relationships of 5'-Aryl-14-alkoxypyridomorphinans: Identification of a μ Opioid Receptor Agonist/δ Opioid Receptor Antagonist Ligand with Systemic Antinociceptive Activity and Diminished Opioid Side Effects” (J Med Chem, 2020).

As usually defined, the EC50 is the midpoint of the concentration-response curve. As usually defined, the Ki is a measure of affinity in units of concentration, obtained from inhibition or displacement. A higher Ki goes with lower affinity. The term IC50 denotes the point on the concentration scale where inhibition reaches its midpoint.

One data set concerns the target T1, Mu-type opioid receptor (Homo sapiens, UniProt P35372). The data set can be described thus: biochemical.
Conditions: not given
In turn, `Oc1ccc2c3c1O[C@H]1c4ncc(-c5ccccc5)cc4C[C@@]4(OCCCCc5ccccc5)[C@@H](C2)N(CC2CC2)CC[C@]314` had an EC50 of 24.8 nM.

On to `Oc1ccc2c3c1O[C@H]1c4ncc(-c5ccc(F)cc5)cc4C[C@@]4(OCCCc5ccccc5)[C@@H](C2)N(CC2CC2)CC[C@]314`, for which the EC50 was 117 nM.

`Cc1ccccc1-c1cnc2c(c1)C[C@@]1(OCCCc3ccccc3)[C@H]3Cc4ccc(O)c5c4[C@@]1(CCN3CC1CC1)[C@H]2O5` came in with an EC50 of 5.53 nM.

Take `Oc1ccc2c3c1O[C@H]1c4ncc(-c5ccccc5C5CC5)cc4C[C@@]4(OCCCc5ccccc5)[C@@H](C2)N(CC2CC2)CC[C@]314`: the EC50 is 141 nM.

Take `Cc1nocc1-c1cnc2c(c1)C[C@@]1(OCCCc3ccccc3)[C@H]3Cc4ccc(O)c5c4[C@@]1(CCN3CC1CC1)[C@H]2O5`: the EC50 turned out to be 3.46 nM.

Molecule `Cc1cccc(C)c1-c1cnc2c(c1)C[C@@]1(OCCCc3ccccc3)[C@H]3Cc4ccc(O)c5c4[C@@]1(CCN3CC1CC1)[C@H]2O5` had a concentration for a half-maximal effect (EC50) of 3.4 nM.

System in a further data set: not listed separately
The data set can be described thus: Stability in human liver microsomes at 1 uM measured up to 60 mins by LC-MS/MS analysis. In kind it is ADME, Microsome. The settings on record: 1 h. (Liver microsomes are a subcellular fraction often used to study metabolism.)
In the case of `Oc1ccc2c3c1O[C@H]1c4ncc(-c5ccccc5)cc4C[C@@]4(OCCCCc5ccccc5)[C@@H](C2)N(CC2CC2)CC[C@]314`, the Stability entry is on record as “Stable”.

As for `Oc1ccc2c3c1O[C@H]1c4ncc(-c5ccc(F)cc5)cc4C[C@@]4(OCCCc5ccccc5)[C@@H](C2)N(CC2CC2)CC[C@]314`, the Stability result was “Stable”.

With `Cc1ccccc1-c1cnc2c(c1)C[C@@]1(OCCCc3ccccc3)[C@H]3Cc4ccc(O)c5c4[C@@]1(CCN3CC1CC1)[C@H]2O5`, the Stability result is reported as “Stable”.

As for `Oc1ccc2c3c1O[C@H]1c4ncc(-c5ccccc5C5CC5)cc4C[C@@]4(OCCCc5ccccc5)[C@@H](C2)N(CC2CC2)CC[C@]314`, the Stability entry is given as “Stable”.

As to `Cc1nocc1-c1cnc2c(c1)C[C@@]1(OCCCc3ccccc3)[C@H]3Cc4ccc(O)c5c4[C@@]1(CCN3CC1CC1)[C@H]2O5`, the Stability result was “Stable”.

Take `Cc1cccc(C)c1-c1cnc2c(c1)C[C@@]1(OCCCc3ccccc3)[C@H]3Cc4ccc(O)c5c4[C@@]1(CCN3CC1CC1)[C@H]2O5`: the Stability result is “Stable”.

Another data set concerns the target T2, Delta-type opioid receptor (Homo sapiens, UniProt P41143). The experiment in a line: Displacement of [3H]-diprenorphine from human delta opioid receptor expressed in CHO cell membranes incubated for 1 hr by competition radioligand binding assay.
Conditions: not given
A general note: Loss of bound radioactivity is the signal in a displacement assay; it reports binding, not function.
Molecule `Oc1ccc2c3c1O[C@H]1c4ncc(-c5ccccc5)cc4C[C@@]4(OCCCCc5ccccc5)[C@@H](C2)N(CC2CC2)CC[C@]314` showed a Ki of 14.6 nM.

`Oc1ccc2c3c1O[C@H]1c4ncc(-c5ccc(F)cc5)cc4C[C@@]4(OCCCc5ccccc5)[C@@H](C2)N(CC2CC2)CC[C@]314` came in with a Ki of 3.42 nM.

In turn, `Cc1ccccc1-c1cnc2c(c1)C[C@@]1(OCCCc3ccccc3)[C@H]3Cc4ccc(O)c5c4[C@@]1(CCN3CC1CC1)[C@H]2O5` registered a Ki of 97.2 nM.

`Oc1ccc2c3c1O[C@H]1c4ncc(-c5ccccc5C5CC5)cc4C[C@@]4(OCCCc5ccccc5)[C@@H](C2)N(CC2CC2)CC[C@]314` registered a Ki of 64.1 nM.

`Cc1nocc1-c1cnc2c(c1)C[C@@]1(OCCCc3ccccc3)[C@H]3Cc4ccc(O)c5c4[C@@]1(CCN3CC1CC1)[C@H]2O5`: the affinity, expressed as Ki, was 64.5 nM.

Turning to `Cc1cccc(C)c1-c1cnc2c(c1)C[C@@]1(OCCCc3ccccc3)[C@H]3Cc4ccc(O)c5c4[C@@]1(CCN3CC1CC1)[C@H]2O5`, the Ki is 93.4 nM.

The next data set concerns the target T3, Kappa-type opioid receptor (Homo sapiens, UniProt P41145). The data set can be described thus: Displacement of [3H]-diprenorphine from human kappa opioid receptor expressed in CHO cell membranes incubated for 1 hr by competition radioligand binding assay.
Conditions: not given
On to `Oc1ccc2c3c1O[C@H]1c4ncc(-c5ccccc5)cc4C[C@@]4(OCCCCc5ccccc5)[C@@H](C2)N(CC2CC2)CC[C@]314`, for which the affinity, expressed as Ki, was 57.1 nM.

Molecule `Oc1ccc2c3c1O[C@H]1c4ncc(-c5ccc(F)cc5)cc4C[C@@]4(OCCCc5ccccc5)[C@@H](C2)N(CC2CC2)CC[C@]314` returned a Ki of 6.69 nM.

For the molecule `Cc1ccccc1-c1cnc2c(c1)C[C@@]1(OCCCc3ccccc3)[C@H]3Cc4ccc(O)c5c4[C@@]1(CCN3CC1CC1)[C@H]2O5`, affinity was put at a Ki of 152 nM.

With `Oc1ccc2c3c1O[C@H]1c4ncc(-c5ccccc5C5CC5)cc4C[C@@]4(OCCCc5ccccc5)[C@@H](C2)N(CC2CC2)CC[C@]314`, the affinity, expressed as Ki, was 175 nM.

As to `Cc1nocc1-c1cnc2c(c1)C[C@@]1(OCCCc3ccccc3)[C@H]3Cc4ccc(O)c5c4[C@@]1(CCN3CC1CC1)[C@H]2O5`, the affinity, expressed as Ki, was 23.1 nM.

For the molecule `Cc1cccc(C)c1-c1cnc2c(c1)C[C@@]1(OCCCc3ccccc3)[C@H]3Cc4ccc(O)c5c4[C@@]1(CCN3CC1CC1)[C@H]2O5`, affinity was put at a Ki of 134 nM.

For a further data set, the target named is T3, Kappa-type opioid receptor. The data set can be described thus: Agonist activity at human kappa opioid receptor expressed in CHO cell membranes incubated for 1 hr by [35S]GTPgammaS binding assay. The settings on record: read-out: EC50. It is filed as functional.
In the case of `Oc1ccc2c3c1O[C@H]1c4ncc(-c5ccc(F)cc5)cc4C[C@@]4(OCCCc5ccccc5)[C@@H](C2)N(CC2CC2)CC[C@]314`, the EC50 worked out at 56.6 nM.

A further data set deals with T2, Delta-type opioid receptor. The experiment in a line: Antagonist activity at human delta opioid receptor expressed in CHO cell membranes assessed as reduction in SNC80-induced [35S]GTPgammaS binding preincubated for 5 mins followed by SNC80 addition and measured after 1 hr. It is filed as functional.
Conditions: not given
Background: Binding of GTPγS marks nucleotide exchange on a G protein.
Turning to `Oc1ccc2c3c1O[C@H]1c4ncc(-c5ccccc5)cc4C[C@@]4(OCCCCc5ccccc5)[C@@H](C2)N(CC2CC2)CC[C@]314`, the IC50 came to 66.6 nM.

With `Oc1ccc2c3c1O[C@H]1c4ncc(-c5ccc(F)cc5)cc4C[C@@]4(OCCCc5ccccc5)[C@@H](C2)N(CC2CC2)CC[C@]314`, the IC50 was found to be 34.5 nM.

Turning to `Cc1ccccc1-c1cnc2c(c1)C[C@@]1(OCCCc3ccccc3)[C@H]3Cc4ccc(O)c5c4[C@@]1(CCN3CC1CC1)[C@H]2O5`, the IC50 stood at 14.3 nM.

Regarding `Oc1ccc2c3c1O[C@H]1c4ncc(-c5ccccc5C5CC5)cc4C[C@@]4(OCCCc5ccccc5)[C@@H](C2)N(CC2CC2)CC[C@]314`, the IC50 came out at 2.48 nM.

Regarding `Cc1nocc1-c1cnc2c(c1)C[C@@]1(OCCCc3ccccc3)[C@H]3Cc4ccc(O)c5c4[C@@]1(CCN3CC1CC1)[C@H]2O5`, the IC50 is 0.68 nM.

Take `Cc1cccc(C)c1-c1cnc2c(c1)C[C@@]1(OCCCc3ccccc3)[C@H]3Cc4ccc(O)c5c4[C@@]1(CCN3CC1CC1)[C@H]2O5`: the IC50 was determined as 51.6 nM.

Another data set deals with T1, Mu-type opioid receptor. The data set can be described thus: biochemical. In kind it is cell-based, CHO.
Conditions: not given
This is another data set of the same source.
Molecule `Oc1ccc2c3c1O[C@H]1c4ncc(-c5ccccc5)cc4C[C@@]4(OCCCCc5ccccc5)[C@@H](C2)N(CC2CC2)CC[C@]314` registered a Ki of 92.1 nM.

For the molecule `Oc1ccc2c3c1O[C@H]1c4ncc(-c5ccc(F)cc5)cc4C[C@@]4(OCCCc5ccccc5)[C@@H](C2)N(CC2CC2)CC[C@]314`, the Ki came to 2.33 nM.

As to `Cc1ccccc1-c1cnc2c(c1)C[C@@]1(OCCCc3ccccc3)[C@H]3Cc4ccc(O)c5c4[C@@]1(CCN3CC1CC1)[C@H]2O5`, the affinity, expressed as Ki, was 235 nM.

On to `Oc1ccc2c3c1O[C@H]1c4ncc(-c5ccccc5C5CC5)cc4C[C@@]4(OCCCc5ccccc5)[C@@H](C2)N(CC2CC2)CC[C@]314`, for which the affinity corresponds to a Ki of 135 nM.

The molecule `Cc1nocc1-c1cnc2c(c1)C[C@@]1(OCCCc3ccccc3)[C@H]3Cc4ccc(O)c5c4[C@@]1(CCN3CC1CC1)[C@H]2O5` yielded a Ki of 99.3 nM.

In turn, `Cc1cccc(C)c1-c1cnc2c(c1)C[C@@]1(OCCCc3ccccc3)[C@H]3Cc4ccc(O)c5c4[C@@]1(CCN3CC1CC1)[C@H]2O5` came in with a Ki of 249 nM.
